This note sets out measurements from US9179674B2, “Macrocyclic picolinamide compounds with fungicidal activity” (DOW AGROSCIENCES LLC, priority 2013, dated 2015).

The structures appear in SMILES notation. Like-named read-outs stand apart in the source and are kept apart here.

Test [1] has as its system Mycosphaerella graminicola; Anamorph: Septoria tritici. Kind of test: Leaf Blotch of Wheat fungicidal activity (SEPTTR). Format: in vivo. The settings on record: Zymoseptoria tritici; for pest or weed control at 100 ppm: rate 100 ppm; for pest or weed control at 121.5 g/ha: rate 121.5 g/H. On the procedure: Evaluation of Fungicidal Activity: Leaf Blotch of Wheat (Mycosphaerella graminicola; Anamorph: Septoria tritici; Bayer code […]) Technical grades of materials were dissolved in acetone, which were then mixed with nine volumes of water containing 110 ppm Triton X-100. The fungicide solutions were applied onto wheat seedlings using an automated booth sprayer to run-off. All sprayed plants were allowed to air dry prior to further handling. All fungicides were evaluated using the aforementioned method for their activity vs. all target diseases. Wheat leaf blotch and brown rust activity were also evaluated using track spray applications, in which case the fungicides were formulated as EC formulations, containing 0.1% Trycol 5941 in the spray solutions. Wheat plants (variety Yuma) were grown from seed in a greenhouse in 50% mineral soil/50% soil-less Metro mix until the first leaf was fully emerged, with 7-10 seedlings per pot. These plants were inoculated with an aqueous spore suspension of Septoria tritici either prior to or after fungicide treatments. After inoculation the plants were kept in 100% relative humidity (one day in a dark dew chamber followed by two to three days in a lighted dew chamber at 20° C.) to permit spores to germinate and infect the leaf. The plants were then transferred to a greenhouse set at 20° C. for disease to develop. When disease symptoms were fully expressed on the 1st leaves of untreated plants, infection levels were assessed on a scale of 0 to 100 percent disease severity. Percent disease control was calculated using the ratio of disease severity on treated plants relative to untreated plants.

A further test has as its system Puccinia triticina. In words: Wheat Brown Rust fungicidal activity (PUCCRT). The settings on record: Puccinia triticina; for pest or weed control at 100 ppm: rate 100 ppm; for pest or weed control at 121.5 g/ha: rate 121.5 g/H. Format: in vivo. As to the method: Technical grades of materials were dissolved in acetone, which were then mixed with nine volumes of water containing 110 ppm Triton X-100. The fungicide solutions were applied onto wheat seedlings using an automated booth sprayer to run-off. All sprayed plants were allowed to air dry prior to further handling. All fungicides were evaluated using the aforementioned method for their activity vs. all target diseases. Wheat leaf blotch and brown rust activity were also evaluated using track spray applications, in which case the fungicides were formulated as EC formulations, containing 0.1% Trycol 5941 in the spray solutions. Wheat plants (variety Yuma) were grown from seed in a greenhouse in 50% mineral soil/50% soil-less Metro mix until the first leaf was fully emerged, with 7-10 seedlings per pot. These plants were inoculated with an aqueous spore suspension of Septoria tritici either prior to or after fungicide treatments. After inoculation the plants were kept in 100% relative humidity (one day in a dark dew chamber followed by two to three days in a lighted dew chamber at 20° C.) to permit spores to germinate and infect the leaf. The plants were then transferred to a greenhouse set at 20° C. for disease to develop. When disease symptoms were fully expressed on the 1st leaves of untreated plants, infection levels were assessed on a scale of 0 to 100 percent disease severity. Percent disease control was calculated using the ratio of disease severity on treated plants relative to untreated plants. Evaluation of Fungicidal Activity: Wheat Brown Rust (Puccinia triticina; Synonym: Puccinia recondite f sp. tritici; Bayer code PUCCRT) Wheat plants (variety Yuma) were grown from seed in a greenhouse in 50% mineral soil/50% soil-less Metro mix until the first leaf was fully emerged, with 7-10 seedlings per pot. These plants were inoculated with an aqueous spore suspension of Puccinia triticina either prior to or after fungicide treatments. After inoculation the plants were kept in a dark dew room at 22° C. with 100% relative humidity overnight to permit spores to germinate and infect the leaf. The plants were then transferred to a greenhouse set at 24° C. for disease to develop. Fungicide formulation, application and disease assessment followed the procedures as described in the Example A.

Where [2] appears, read: 24 h, 1 Day Protectant, read-out: Disease control SEPTTR 1DP.
Setting [3] is: 72 h, 3 Day Curative, read-out: Disease control SEPTTR 3DC.
The mark [4] stands for this setting: 24 h, 1 Day Protectant, read-out: Disease control PUCCRT 1DP.
The mark [5] stands for this setting: 72 h, 3 Day Curative, read-out: Disease control PUCCRT 3DC.

`COc1ccnc(C(=O)N[C@H]2COC[C@H](Cc3ccc(F)cc3)[C@@H](OCC(C)C)[C@H](C)OC2=O)c1O` [Compound F21]: the pest or weed control at 100 ppm (in test [1] (setting [2]); in test [1] (setting [3]); with Puccinia triticina (setting [4]); with Puccinia triticina (setting [5])) was 80 to 100% in each case.

As to `COc1ccnc(C(=O)N[C@H]2COC[C@H](Cc3ccc(F)cc3)[C@@H](OCCCC(F)(F)F)[C@H](C)OC2=O)c1OCOC(C)=O` [Compound F93], the pest or weed control at 100 ppm (in test [1] (setting [2]); in test [1] (setting [3]); in the test on Puccinia triticina (setting [4]); with Puccinia triticina (setting [5])) was 80 to 100% throughout. Besides, the pest or weed control at 121.5 g/ha (in test [1] (setting [2]); in test [1] (setting [3]); with Puccinia triticina (setting [4]); in the test with Puccinia triticina (setting [5])) was 80 to 100% throughout.

In the case of `COc1ccnc(C(=O)N[C@H]2COC[C@H](Cc3ccc(C(F)(F)F)cc3)[C@@H](OCC(C)C)[C@H](C)OC2=O)c1OC(C)=O` [Compound F65], the pest or weed control at 100 ppm (in test [1] (setting [2]); in test [1] (setting [3]); in the test on Puccinia triticina (setting [4]); in the test on Puccinia triticina (setting [5])) was 80 to 100% throughout. Besides, the pest or weed control at 121.5 g/ha lay in the range of 80 to 100% in test [1] (setting [2]), 80 to 100% in test [1] (setting [3]), 80 to 100% in the test on Puccinia triticina (setting [4]) and 0 to 80% in the test on Puccinia triticina (setting [5]).

Take `COc1ccnc(C(=O)N[C@H]2COC[C@H](Cc3cccc4ccccc34)[C@@H](OCC(C)C)[C@H](C)OC2=O)c1OCOC(C)=O` [Compound F87]: the pest or weed control at 100 ppm (in test [1] (setting [2]); in test [1] (setting [3]); with Puccinia triticina (setting [4]); in the test with Puccinia triticina (setting [5])) was 80 to 100% throughout. Moreover, the pest or weed control at 121.5 g/ha is 80 to 100% in test [1] (setting [2]), 80 to 100% in test [1] (setting [3]), 80 to 100% with Puccinia triticina (setting [4]) and 0 to 80% in the test on Puccinia triticina (setting [5]).

As to `COc1ccnc(C(=O)N[C@H]2COC[C@H](Cc3ccc(C(F)(F)F)cc3)[C@@H](OCC(C)C)[C@H](C)OC2=O)c1O` [Compound F27], the pest or weed control at 100 ppm in test [1] (setting [2]) lay within 80 to 100%; in test [1] (setting [3]) it was 0 to 80%; in the test with Puccinia triticina (setting [4]) it was 80 to 100%; with Puccinia triticina (setting [5]), 0 to 80%.

Consider `CCCO[C@@H]1[C@@H](Cc2ccc(C(F)(F)F)cc2)COC[C@H](NC(=O)c2nccc(OC)c2OCOC(C)=O)C(=O)O[C@H]1C` [Compound F101], for which the pest or weed control at 100 ppm (in test [1] (setting [2]); in test [1] (setting [3]); in the test on Puccinia triticina (setting [4]); with Puccinia triticina (setting [5])) was 80 to 100% throughout.

Consider `COc1ccnc(C(=O)N[C@H]2COC[C@H](CCC(C)C)[C@@H](OC3CCCC3)[C@H](C)OC2=O)c1OC(C)=O` [Compound F71], for which the pest or weed control at 100 ppm (in test [1] (setting [2]); in test [1] (setting [3]); in the test with Puccinia triticina (setting [4]); in the test with Puccinia triticina (setting [5])) was 80 to 100% in each case.

With `COc1ccnc(C(=O)N[C@H]2COC[C@H](Cc3ccc(C(F)(F)F)cc3)[C@@H](OC(=O)C(C)C)[C@H](C)OC2=O)c1OCOC(C)=O` [Compound F102], the pest or weed control at 100 ppm (in test [1] (setting [2]); in test [1] (setting [3]); in the test on Puccinia triticina (setting [4]); in the test on Puccinia triticina (setting [5])) was 80 to 100% in each case.

Take `CCCO[C@@H]1[C@@H](Cc2ccc(C(F)(F)F)cc2)COC[C@H](NC(=O)c2nccc(OC)c2O)C(=O)O[C@H]1C` [Compound F29]: the pest or weed control at 100 ppm in test [1] (setting [2]) lay in the range of 80 to 100%; in test [1] (setting [3]), 80 to 100%; with Puccinia triticina (setting [4]) it was 80 to 100%; in the test with Puccinia triticina (setting [5]), 0 to 80%.

With `COc1ccnc(C(=O)N[C@H]2COC[C@H](Cc3ccc(F)cc3)[C@@H](OCCCC(F)(F)F)[C@H](C)OC2=O)c1O` [Compound F17], the pest or weed control at 100 ppm in test [1] (setting [2]) lay in the range of 80 to 100%; in test [1] (setting [3]), 80 to 100%; with Puccinia triticina (setting [4]), 80 to 100%; in the test with Puccinia triticina (setting [5]), 0 to 80%.

For the compound `COc1ccnc(C(=O)N[C@H]2COC[C@H](Cc3ccc(C(F)(F)F)cc3)[C@@H](OC3CCCC3)[C@H](C)OC2=O)c1OCOC(C)=O` [Compound F100], the pest or weed control at 100 ppm (in test [1] (setting [2]); in test [1] (setting [3]); in the test with Puccinia triticina (setting [4]); with Puccinia triticina (setting [5])) was 80 to 100% throughout. Besides, the pest or weed control at 121.5 g/ha in test [1] (setting [2]) lay within 80 to 100%; in test [1] (setting [3]) it was 0 to 80%; in the test with Puccinia triticina (setting [4]), 80 to 100%; with Puccinia triticina (setting [5]), 0 to 80%.

Consider `COc1ccnc(C(=O)N[C@H]2COC[C@H](CC(F)(F)F)[C@@H](OC3CCCC3)[C@H](C)OC2=O)c1O` [Compound F33], for which the pest or weed control at 100 ppm lay in the range of 80 to 100% in test [1] (setting [2]), 0 to 80% in test [1] (setting [3]) and 0 to 80% with Puccinia triticina (setting [4]).

In the case of `COc1ccnc(C(=O)N[C@H]2COC[C@H](CCC(C)C)[C@@H](OCC(C)C)[C@H](C)OC2=O)c1OC(C)=O` [Compound F68], the pest or weed control at 100 ppm (in test [1] (setting [2]); in test [1] (setting [3]); in the test on Puccinia triticina (setting [4]); with Puccinia triticina (setting [5])) was 80 to 100% each time. The pest or weed control at 121.5 g/ha (in test [1] (setting [2]); in test [1] (setting [3]); with Puccinia triticina (setting [4]); in the test with Puccinia triticina (setting [5])) was 80 to 100% in each case.

Take `COc1ccnc(C(=O)N[C@H]2COC[C@H](CCc3ccccc3)[C@@H](OC(=O)C3CC3)[C@H](C)OC2=O)c1OCOC(=O)C(C)C` [Compound F118]: the pest or weed control at 100 ppm (in test [1] (setting [2]); in test [1] (setting [3]); with Puccinia triticina (setting [4]); in the test on Puccinia triticina (setting [5])) was 80 to 100% each time. The pest or weed control at 121.5 g/ha (in test [1] (setting [2]); in test [1] (setting [3]); in the test on Puccinia triticina (setting [4]); with Puccinia triticina (setting [5])) was 80 to 100% each time.

For the compound `CCCO[C@@H]1[C@@H](CCC(C)C)COC[C@H](NC(=O)c2nccc(OC)c2O)C(=O)O[C@H]1C` [Compound F38], the pest or weed control at 100 ppm (in test [1] (setting [2]); in test [1] (setting [3]); in the test on Puccinia triticina (setting [4]); with Puccinia triticina (setting [5])) was 80 to 100% throughout.

Take `COc1ccnc(C(=O)N[C@H]2COC[C@H](CCc3ccccc3)[C@@H](OC(=O)C3CC3)[C@H](C)OC2=O)c1OCOC(C)=O` [Compound F92]: the pest or weed control at 100 ppm (in test [1] (setting [2]); in test [1] (setting [3]); in the test on Puccinia triticina (setting [4]); with Puccinia triticina (setting [5])) was 80 to 100% throughout. The pest or weed control at 121.5 g/ha (in test [1] (setting [2]); in test [1] (setting [3]); in the test with Puccinia triticina (setting [4]); with Puccinia triticina (setting [5])) was 80 to 100% each time.

With `COc1ccnc(C(=O)N[C@H]2COC[C@H](Cc3ccc(C)cc3)[C@@H](Oc3ccccc3)[C@H](C)OC2=O)c1OC(C)=O` [Compound F63], the pest or weed control at 100 ppm (in test [1] (setting [2]); in test [1] (setting [3]); in the test with Puccinia triticina (setting [4]); in the test with Puccinia triticina (setting [5])) was 80 to 100% in each case. In addition, the pest or weed control at 121.5 g/ha in test [1] (setting [2]) was 80 to 100%; in test [1] (setting [3]), 80 to 100%; in the test with Puccinia triticina (setting [4]), 80 to 100%; in the test on Puccinia triticina (setting [5]), 0 to 80%.
